Measured values as given in patent US10787413B2, “Derivatives of curcuminoids and use thereof as an anticancer agent” (CHINA MEDICAL UNIVERSITY, priority 2016, dated 2020).
Read-outs that look alike come from different tables or passages of the source.

Legend:
[1] = system: MDA-MB-231 breast cancer cell; assay: MTT cell viability assay, MDA-MB-231 breast cancer cell; format: cell-based, human; conditions: for IC50: Homo sapiens; for times more potent than curcumin (IC50): MDA-MB-231, 72 h treatment, curcumin IC50 16.23 μM
Experimental: Cell viability was evaluated by measuring the reduction in MTT to yield blue formazan. Cells were cultured in 96-well plates, allowed to attach overnight, and then treated with compounds. After treatment, MTT solution (1 mg/ml) was added to each well, and plates were incubated for another 4 h.

[2] = system: HCT-116 colon cancer cell; assay: MTT cell viability assay, HCT-116 colon cancer cell; format: cell-based; conditions: Homo sapiens
Experimental: (§1) Cell viability was evaluated by measuring the reduction in MTT to yield blue formazan. Cells were cultured in 96-well plates, allowed to attach overnight, and then treated with compounds. After treatment, MTT solution (1 mg/ml) was added to each well, and plates were incubated for another 4 h. Medium were removed, blue formazan was dissolved in DMSO, and the absorbance was read at 570 nm^20.

PC3 prostate cancer cell = assay: MTT cell viability assay, PC3 prostate cancer cell; format: cell-based
Experimental: as §1

[3] = MDA-MB-231, 24 h, MDA-MB-231, treated 24 hours, read-out: IC50 24 hours
[4] = MDA-MB-231, 48 h, MDA-MB-231, treated 48 hours, read-out: IC50 48 hours
[5] = MDA-MB-231, 72 h, MDA-MB-231, treated 72 hours, read-out: IC50 72 hours
[6] = HCT-116, treated 24 hours, read-out: IC50 24 hours
[7] = HCT-116, treated 48 hours, read-out: IC50 48 hours
[8] = HCT-116, treated 72 hours, read-out: IC50 72 hours
[9] = PC-3, treated 24 hours, read-out: IC50 24 hours
[10] = PC-3, treated 48 hours, read-out: IC50 48 hours
[11] = PC-3, treated 72 hours, read-out: IC50 72 hours

SMILES | IC50 [1, 3] [µM] | IC50 [1, 4] [µM] | IC50 [1, 5] [µM] | IC50 [2, 6] [µM] | IC50 [2, 7] [µM] | IC50 [2, 8] [µM] | IC50 (PC3 prostate cancer cell; [9]) [µM] | IC50 (PC3 prostate cancer cell; [10]) [µM] | IC50 (PC3 prostate cancer cell; [11]) [µM] | melting point [°C] | times more potent than curcumin (IC50) [1]
COc1cc(/C=C/C(O)=C/C(=O)/C=C/c2ccc(OC(=O)C(C)(CO)CO)c(OC)c2)ccc1O [Compound 21b, 4-((1E,4Z,6E)-5-Hydroxy-7-(4-hydroxy-3-methoxyphenyl)-3-oxohepta-1,4,6-trien-1-yl)-2 methoxyphenyl 3-hydroxy-2-(hydroxymethyl)-2-methylpropanoate] | 13.2 ± 1.2 | 9.97 ± 1.12 | 5.94 | 35.6 ± 2.5 | 20.4 ± 0.61 | 15.5 ± 0.16 | 24.6 ± 0.83 | 26.8 ± 0.74 | 17.4 ± 1.37 | 104 to 105 | 
CCC(CO)(CO)C(=O)Oc1ccc(/C=C/C(=O)/C=C(O)/C=C/c2ccc(O)c(OC)c2)cc1OC [Compound 22b, 4-((1E,4Z,6E)-5-Hydroxy-7-(4-hydroxy-3-methoxyphenyl)-3-oxohepta-1,4,6-trien-1-yl)-2-methoxyphenyl 2,2-bis(hydroxymethyl)butanoate] | 14.6 ± 2.42 | 7.55 ± 0.86 | 4.66 | 21.2 ± 2.48 | 12.4 ± 0.16 | 11.4 ± 1.05 | 13.8 ± 1.48 | 14.4 ± 0.82 | 12.5 ± 0.1 | 82 to 83 | 
CC(CO)(CO)C(=O)Oc1ccc(/C=C/C(=O)/C=C(O)/C=C/c2ccc(OC(=O)C(C)(CO)CO)cc2)cc1 [Compound 23a, ((1E,3Z,6E)-3-Hydroxy-5-oxohepta-1,3,6-triene-1,7-diyl)bis(4,1-phenylene) bis(3-hydroxy-2-(hydroxymethyl)-2-methylpropanoate)] | 26.7 ± 1.85 | 7.82 ± 0.56 | 6.74 | 57.4 ± 12.2 | 8.64 ± 0.18 | 4.1 ± 0.06 | 8.46 ± 0.64 | 8.77 ± 0.8 | 5.59 ± 0.2 | 192 to 194 | 
CC(CO)(CO)C(=O)Oc1ccc(/C=C/C(=O)/C=C(O)/C=C/c2ccc(O)cc2)cc1 [Compound 23b, 4-((1E,4Z,6E)-5-hydroxy-7-(4-hydroxyphenyl)-3-oxohept-1,4,6-trien-1-yl)phenyl 3-hydroxy-2-(hydroxymethyl)-2-methylpropanoate] | 19.5 ± 1.82 | 5.27 ± 0.57 | 1.33 | 71.9 ± 7.87 | 11.3 ± 0.72 | 4.78 ± 0.66 | 20.1 ± 2.62 | 11 ± 0.44 | 5.22 ± 0.27 | 206 to 208 | about 12 times
COc1ccc(/C=C/C(=O)CC(=O)/C=C/c2ccc(OC)c(OC(=O)C(C)(CO)CO)c2)cc1OC(=O)C(C)(CO)CO [Compound 24a, ((1E,6E)-3,5-Dioxohepta-1,6-diene-1,7-diyl)bis(2-methoxy-5,1-phenylene) bis(3-hydroxy-2-(hydroxymethyl)-2-methylpropanoate)] | 9.22 ± 2.24 | 5.11 ± 0.96 | 4.61 | 11.4 ± 1.11 | 5.33 ± 0.29 | 2.79 ± 0.15 | 11.9 ± 1.4 | 6.43 ± 0.26 | 4.74 ± 0.04 | 194 to 196 | about 3.5 times
COc1ccc(/C=C/C(=O)CC(=O)/C=C/c2ccc(OC)c(OC(=O)C(C)(CO)CO)c2)cc1O [Compound 24b, 5-((1E,6E)-7-(3-Hydroxy-4-methoxyphenyl)-3,5-dioxohepta-1,6-dien-1-yl)-2-methoxyphenyl 3-hydroxy-2-(hydroxymethyl)-2-methylpropanoate] | 7.69 ± 0.82 | 1.99 ± 0.99 | 2.29 | 7.57 ± 1.02 | 3.84 ± 0.41 | 1.95 ± 0.15 | 8.37 ± 0.81 | 3.75 ± 0.18 | 2.32 ± 0.05 | 184 to 186 | 
CCOc1cc(/C=C/C(=O)/C=C(O)/C=C/c2ccc(OC(=O)C(C)(CO)CO)c(OCC)c2)ccc1OC(=O)C(C)(CO)CO [Compound 26, ((1E,3Z,6E)-3-hydroxy-5-oxohepta-1,3,6-triene-1,7-diyl)bis(2-ethoxy-4,1-phenylene) bis(3-hydroxy-2-(hydroxymethyl)-2-methylpropanoate)] | 18.43 ± 0.15 | 8.85 ± 0.66 | 6.58 ± 0.81 | 8.33 ± 0.39 | 4.22 ± 0.05 | 3.79 ± 0.1 | 9.38 ± 0.01 | 9.53 ± 0.36 | 5.36 ± 0.07 | 153 to 155 | 
CCOc1cc(/C=C/C(=O)/C=C(O)/C=C/c2ccc(OC(=O)C(CC)(CO)CO)c(OCC)c2)ccc1OC(=O)C(CC)(CO)CO [Compound 27, ((1E,3Z,6E)-3-hydroxy-5-oxohepta-1,3,6-triene-1,7-diyl)bis(2-ethoxy-4,1-phenylene) bis(2,2-bis(hydroxymethyl)butanoate)] | 8.04 ± 0.17 | 7.43 ± 1.36 | 5.49 ± 0.52 | 3.79 ± 0.03 | 3.18 ± 0.26 | 2.97 ± 0.13 | 8.18 ± 1.89 | 4.46 ± 0.15 | 3.06 ± 0.29 | 161 to 162 | 
COc1ccc(/C=C/C(O)=C/C(=O)/C=C/c2ccc(OC(=O)C(C)(CO)CO)c(OC)c2)cc1OC [Compound 33, 4-((1E,4Z,6E)-7-(3,4-dimethoxyphenyl)-5-hydroxy-3-oxohepta-1,4,6-triene-1-yl)-2-methoxyphenyl 3-hydroxy-2-(hydroxymethyl)-2-methylpropanoate] | 4.69 ± 0.73 | 3.12 ± 0.17 | 2.55 | 10.5 ± 0.64 | 7.56 ± 0.77 | 4.77 ± 0.24 | 7.77 ± 0.88 | 7.85 ± 0.81 | 7.64 ± 0.75 | 99 to 101 | 
COc1cc(/C=C/C(=O)C(COC(C)=O)(COC(C)=O)C(=O)/C=C/c2ccc(OC(=O)C(C)(CO)CO)c(OC)c2)ccc1OC(=O)C(C)(CO)CO [Compound 41, ((1E,6E)-4,4-bis(acetoxymethyl)-3,5-dioxohepta-1,6-diene-1,7-diyl)bis(2-methoxy-4,1-phenylene) bis(3-hydroxy-2-(hydroxymethyl)-2-methylpropanoate)] | 57.6 ± 1.59 |  | 3.69 ± 0.02 | 9.52 ± 0.06 |  | 5.4 ± 0.02 | 65.2 ± 1.43 | 47.4 ± 2.65 | 32.8 ± 2.7 |  | 
COc1ccc(/C=C/C(=O)C(CO)(CO)C(=O)/C=C/c2ccc(OC)c(OC)c2)cc1OC [Compound 42, (1E,6E)-1,7-bis(3,4-dimethoxyphenyl)-4,4-bis(hydroxymethyl)hepta-1,6-diene-3,5-dione] | > 100 |  | 9.02 ± 1.13 | 89.65 ± 0.49 | 8 ± 0.6 | 7.18 ± 0.68 | 77.2 ± 2.34 | 61.2 ± 2.3 | 26.1 ± 0.81 |  | 
COc1ccc(/C=C/C(=O)C(COC(=O)C(C)(CO)CO)(COC(=O)C(C)(CO)CO)C(=O)/C=C/c2ccc(OC)c(OC)c2)cc1OC [Compound 43, 2,2-bis((E)-3-(3,4-dimethoxyphenyl)acryloyl)propane-1,3-diylbis(3-hydroxy-2-(hydroxymethyl)-2-methylpropanoate)] | 83 ± 0.17 |  | 17.3 ± 0.1 | 64.7 ± 1.56 |  | 25.1 ± 0.5 | 67.7 ± 1.76 | 52.2 ± 1.23 | 51.3 ± 0.39 |  | 
COc1ccc(/C=C/C(=O)C(COC(C)=O)(COC(C)=O)C(=O)/C=C/c2ccc(OC)c(OC)c2)cc1OC [Compound 44, 2,2-bis((E)-3-(3,4-dimethoxyphenyl)acryloyl)propane-1,3-diyl diacetate] | 7.21 ± 0.18 | 0.9 ± 0.03 | 0.61 ± 0.1 | 6.33 ± 1.01 | 3.66 ± 0.25 | 1.51 ± 0.55 | 3.68 ± 0.11 | 3.07 ± 0.37 | 0.85 ± 0.07 |  | 
